Test results published in the supplement of paper PMC5908809.

What was measured:
[1] = system: normal NK cells expanded with K562-aAPC; test: percent inhibition of viability; higher = more inhibition; conditions: 72 h, IL-2 2.5 ng/mL
Experimental: (§1)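 Drug sensitivity and resistance testing on K562-aAPC-expanded normal NK cells: 5 concentrations (10-fold steps over a 10,000-fold range), 72 h at 37 °C, viability by CellTiter-Glo normalised to DMSO and benzethonium chloride controls; DSS from the fitted curve.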

[2] = system: normal NK cells expanded with K562-aAPC; test: drug sensitivity score (DSS) (DSS units); higher = more sensitive; extreme values may be limits of the assay; conditions: 72 h; IL-2 2.5 ng/mL
Experimental: as §1

DERL-7 (IL-2 2.5 ng/mL) [3] = test: percent inhibition of viability; higher = more inhibition; conditions: 72 h
[4] = system: normal primary NK cells, pool 3 (3 donors) (IL-2 2.5 ng/mL); test: as above; conditions: 72 h
NKL (IL-2 2.5 ng/mL) [5] = test: as above; conditions: 72 h
[6] = system: normal primary NK cells, pool 1 (3 donors), resting (IL-2 0 ng/mL); test: as above; conditions: 72 h
SNK-6 (IL-2 2.5 ng/mL) [7] = test: as above; conditions: 72 h
[8] = system: normal primary NK cells, pool 1 (3 donors) (IL-2 2.5 ng/mL); test: as above; conditions: 72 h
[9] = system: normal primary NK cells, pool 2 (3 donors) (IL-2 2.5 ng/mL); test: as above; conditions: 72 h
KAI3 (IL-2 2.5 ng/mL) [10] = test: as above; conditions: 72 h
NK-YS (IL-2 2.5 ng/mL) [11] = test: as above; conditions: 72 h
IMC-1 (IL-2 20 ng/mL) [12] = test: as above; conditions: 72 h
YT (IL-2 2.5 ng/mL) [13] = test: as above; conditions: 72 h
NK-92 (IL-2 2.5 ng/mL) [14] = test: as above; conditions: 72 h
KHYG-1 (IL-2 2.5 ng/mL) [15] = test: as above; conditions: 72 h
DERL-7 (IL-2 2.5 ng/mL) [16] = test: drug sensitivity score (DSS) (DSS units); higher = more sensitive; extreme values may be limits of the assay; conditions: 72 h
[17] = system: normal primary NK cells, pool 3 (3 donors) (IL-2 2.5 ng/mL); test: as above; conditions: 72 h
NKL (IL-2 2.5 ng/mL) [18] = test: as above; conditions: 72 h
[19] = system: normal primary NK cells, pool 1 (3 donors), resting (IL-2 0 ng/mL); test: as above; conditions: 72 h
SNK-6 (IL-2 2.5 ng/mL) [20] = test: as above; conditions: 72 h
[21] = system: normal primary NK cells, pool 1 (3 donors) (IL-2 2.5 ng/mL); test: as above; conditions: 72 h
[22] = system: normal primary NK cells, pool 2 (3 donors) (IL-2 2.5 ng/mL); test: as above; conditions: 72 h
KAI3 (IL-2 2.5 ng/mL) [23] = test: as above; conditions: 72 h
NK-YS (IL-2 2.5 ng/mL) [24] = test: as above; conditions: 72 h
IMC-1 (IL-2 20 ng/mL) [25] = test: as above; conditions: 72 h
YT (IL-2 2.5 ng/mL) [26] = test: as above; conditions: 72 h
NK-92 (IL-2 2.5 ng/mL) [27] = test: as above; conditions: 72 h
KHYG-1 (IL-2 2.5 ng/mL) [28] = test: as above; conditions: 72 h

CC(C)C[C@H](NC(=O)[C@@H](COC(C)(C)C)NC(=O)[C@H](Cc1ccc(O)cc1)NC(=O)[C@H](CO)NC(=O)[C@H](Cc1c[nH]c2ccccc12)NC(=O)[C@H](Cc1cnc[nH]1)NC(=O)[C@@H]1CCC(=O)N1)C(=O)N[C@@H](CCCNC(=N)N)C(=O)N1CCC[C@H]1C(=O)NNC(N)=O [Goserelin] (max concentration tested 10000 nM)
percent inhibition of viability [%]
Conditions	1 nM	10 nM	100 nM	1000 nM	10000 nM
DERL-7 (IL-2 2.5 ng/mL) [3]	0.68	-4.54	-4.5	-0.44	-4.02
IMC-1 (IL-2 20 ng/mL) [12]	-8.43	-3.76	-4.51	-0.15	11.2
KAI3 (IL-2 2.5 ng/mL) [10]	-6.09	-9.54	-7.05	1.42	21.1
KHYG-1 (IL-2 2.5 ng/mL) [15]	-5.2	-3.78	-7.91	-4.87	6.57
NK-92 (IL-2 2.5 ng/mL) [14]	-9.16	-10.9	-7.22	-12.8	20.7
NK-YS (IL-2 2.5 ng/mL) [11]	-9.13	-9.66	-6.69	-6.01	6.61
NKL (IL-2 2.5 ng/mL) [5]	-13.2	-11.5	-12.2	0.66	14.8
SNK-6 (IL-2 2.5 ng/mL) [7]	-19.4	-9.63	-24.4	-13.4	-9.52
YT (IL-2 2.5 ng/mL) [13]	-6.11	-8.09	-5.17	-3.36	20.9
[1]	-6.58	-6.46	-10.9	-5.02	13.2
[4]	-3.77	-5.54	7.78	0.8	-2.53
[6]	-2.06	1.54	20.9	19.8	15.1
[8]	2.55	-1.49	10.9	10.5	-0.05
[9]	-6.03	-6.27	-2.35	5.13	11.8

Conditions	drug sensitivity score
DERL-7 (IL-2 2.5 ng/mL) [16]	0
IMC-1 (IL-2 20 ng/mL) [25]	0.01
KAI3 (IL-2 2.5 ng/mL) [23]	0.84
KHYG-1 (IL-2 2.5 ng/mL) [28]	0
NK-92 (IL-2 2.5 ng/mL) [27]	0.34
NK-YS (IL-2 2.5 ng/mL) [24]	0
NKL (IL-2 2.5 ng/mL) [18]	0.26
SNK-6 (IL-2 2.5 ng/mL) [20]	0
YT (IL-2 2.5 ng/mL) [26]	0.49
[2]	0.04
[17]	0
[19]	5.4
[21]	0
[22]	0.22

CCNC(=O)c1noc(-c2cc(C(C)C)c(O)cc2O)c1-c1ccc(CN2CCOCC2)cc1 [Luminespib] (max concentration tested 1000 nM)
percent inhibition of viability [%]
Conditions	0.1 nM	1 nM	10 nM	100 nM	1000 nM
DERL-7 (IL-2 2.5 ng/mL) [3]	2.4	1.89	99.7	100	100
IMC-1 (IL-2 20 ng/mL) [12]	-0.63	-3.7	51.6	99.6	99.7
KAI3 (IL-2 2.5 ng/mL) [10]	1.34	8.03	88.8	100	97.7
KHYG-1 (IL-2 2.5 ng/mL) [15]	-1.01	1.79	47.7	102	99.4
NK-92 (IL-2 2.5 ng/mL) [14]	-9.62	-1.81	66.9	97.9	95
NK-YS (IL-2 2.5 ng/mL) [11]	-0.03	4.35	89.3	98.7	97.7
NKL (IL-2 2.5 ng/mL) [5]	-1.62	-1.66	87.8	86.7	85.5
SNK-6 (IL-2 2.5 ng/mL) [7]	-5.65	9.52	35.8	85.2	87.3
YT (IL-2 2.5 ng/mL) [13]	-1.24	-3.01	7.32	89.6	92.1
[1]	-2.12	-2.95	97.5	97.4	97.4
[4]	-20	-6.55	68.1	75.4	77.5
[6]	-4.56	-1.24	21.2	46.8	48.1
[8]	-3.81	5.41	76.8	82.5	86.2
[9]	-11.3	0.74	74.2	74.9	76

Conditions	drug sensitivity score
DERL-7 (IL-2 2.5 ng/mL) [16]	30.7
IMC-1 (IL-2 20 ng/mL) [25]	24.3
KAI3 (IL-2 2.5 ng/mL) [23]	29.8
KHYG-1 (IL-2 2.5 ng/mL) [28]	24
NK-92 (IL-2 2.5 ng/mL) [27]	25.4
NK-YS (IL-2 2.5 ng/mL) [24]	29.1
NKL (IL-2 2.5 ng/mL) [18]	26.9
SNK-6 (IL-2 2.5 ng/mL) [20]	19.6
YT (IL-2 2.5 ng/mL) [26]	17.6
[2]	29.5
[17]	22.2
[19]	11.5
[21]	25.7
[22]	23.5

CC(C)(C)Cn1c(N)nc2ccc(-c3[nH]c(C(C)(C)C)nc3-c3ccc(F)cc3)nc21 [Ralimetinib] (max concentration tested 10000 nM)
percent inhibition of viability [%]
Conditions	1 nM	10 nM	100 nM	1000 nM	10000 nM
DERL-7 (IL-2 2.5 ng/mL) [3]	-0.84	3.26	3.67	8.89	48.2
IMC-1 (IL-2 20 ng/mL) [12]	-2.69	-3.53	-8.24	-9.02	-12.2
KAI3 (IL-2 2.5 ng/mL) [10]	5.37	12.8	12.9	10.1	11
KHYG-1 (IL-2 2.5 ng/mL) [15]	-1.88	-3.23	-1.97	1.06	46.9
NK-92 (IL-2 2.5 ng/mL) [14]	-0.07	2.05	1.85	13.3	86.5
NK-YS (IL-2 2.5 ng/mL) [11]	-3.85	0.83	1.68	3.41	13.1
NKL (IL-2 2.5 ng/mL) [5]	0.97	4.97	7.92	17.1	70
SNK-6 (IL-2 2.5 ng/mL) [7]	-2.2	-16	-17.2	-21.4	9.93
YT (IL-2 2.5 ng/mL) [13]	1.29	1.91	4.09	6.38	55.6
[1]	-3.87	-2.62	-1.53	-3.78	1.72
[4]	-7.2	-12.3	-15.7	-6.16	11.3
[6]	-14.8	-29.1	-0.22	-17.7	77
[8]	-10.9	-14.6	6.91	-4.19	51.1
[9]	-10.8	-12.4	-9.11	-7.41	31.4

Conditions	drug sensitivity score
DERL-7 (IL-2 2.5 ng/mL) [16]	4
IMC-1 (IL-2 20 ng/mL) [25]	0
KAI3 (IL-2 2.5 ng/mL) [23]	0
KHYG-1 (IL-2 2.5 ng/mL) [28]	2.57
NK-92 (IL-2 2.5 ng/mL) [27]	7.03
NK-YS (IL-2 2.5 ng/mL) [24]	0.28
NKL (IL-2 2.5 ng/mL) [18]	6.44
SNK-6 (IL-2 2.5 ng/mL) [20]	0
YT (IL-2 2.5 ng/mL) [26]	4.06
[2]	0
[17]	0
[19]	3.35
[21]	2.38
[22]	1.04
